Tests used:
[1] = tested on: BEAS-2B human bronchial epithelial cell line; experiment: MTT assay, cytotoxicity of ketone compounds in BEAS-2B cell line; assay type: cell-based
Protocol: BEAS-2B (Korean Cell Line Bank), a human bronchial epithelial cell line, was cultured using RPMI 1640 medium (Gibco, USA) supplemented with 10% FBS until the cells grew to about a confluence of 70 to 80% in a 100 mm dish.
Among ketones belonging to mVOCs (microbial volatile organic compounds) exposed to the environment, acetone, 2-butanone, 2-pentanone, 2-hexanone and 2-heptanone were selected, and the chemicals were dissolved in filtered distilled water (DW). A vehicle concentration was set to 0.1% or less in all experiments.
MTT assay using a BEAS-2B cell line was performed in accordance with the method of Mossman et al. (J. Immunol. Methods, 65, 55-63, 1983).
Specifically, the cells were seeded at a density of 3.5×10^4 cells/well in a 24-well plate and treated with the five ketone compounds dissolved in filtered distilled water, prepared in Example 1-2. After 48 hours, the result was mixed with 5 mg/ml of MTT (3-4,5-dimethylthiazol-2,5-diphenyltetrazolium bromide), added to a tube and incubated at 37° C. for 3 hours. Then, the medium was removed, the formed formazan crystal was dissolved in 500 μl of DMSO, and then 100 μl of the solution was transferred to a 96-well plate to measure an OD (optical density) value at 540 nm.

[2] = tested on: BEAS-2B human bronchial epithelial cell line; experiment: Gene expression change by high-throughput RNA sequencing (NextSeq 500) in ketone-exposed BEAS-2B cells; assay type: cell-based
Protocol: RNA was extracted from cell samples of ketone-exposed and non-ketone-exposed groups using a TRIzol reagent (Life Technologies, USA) in accordance with the manufacturer's directions to isolate total RNA and the total RNA was purified using a RNeasy mini kit (Qiagen, USA). The concentration of each total RNA sample was determined by a ND-2000 spectrophotometer (Thermo Inc., DE, USA) as a spectrophotometer and Agilent 2100 Bioanalyzer (Agilent Technologies, USA).
The establishment of libraries from the total RNA obtained in Example 2-1 in the experimental group and the normal control group exposed to the ketones was carried out using a QuantSeq 3′ mRNA-Seq Library Prep Kit (Lexogen, Inc., Austria) in accordance with the manufacturer's directions. 500 ng of the total RNA was hybridized with an oligo-dT primer including an Illumina-compatible sequence at the 5′ end of RNA, followed by reverse transcription. After degradation of the RNA template, a second strand was synthesized using a random primer including an Illumina-compatible linker sequence at the 5′ end thereof. Double-stranded libraries were purified using magnetic beads to remove all reaction components. The library was amplified in order to add the entire adapter sequence required for cluster production, and the completed cDNA library was purified from the PCR components.
Sequencing was performed by high-throughput sequencing as single-end 75 sequencing using a NextSeq 500 (IIlumina, Inc., USA). Read count (RC) data was processed based on the quantile normalization method using EdgeR in R (R development Core Team, 2016) using Bioconductor (Gentleman et al., 2004). Gene classification was based on searches performed on DAVID (http://david.abcc.ncifcrf.gov/) and the Medline database (http://www.ncbi.nlm.nih.gov/).
The extracted data were analyzed through normalization using Agilent GeneSpring GX 12.6.1 (Agilent technologies, CA, USA) to analyze the expression pattern of each gene.

[3] = IC5 conc.: Acetone 5.38, 2-Butanone 22.27, 2-Pentanone 5.24, 2-Hexanone 14.82, 2-Heptanone 5.05 mM
[4] = IC20 conc.: Acetone 71.90, 2-Butanone 106.21, 2-Pentanone 39.38, 2-Hexanone 52.51, 2-Heptanone 20.22 mM

CCCC(C)=O [2-Pentanone, 2-pentanone]
concentration (105) providing a survival rate (viability) of 95% ([1]; human, 48 h): 5240 µM | concentration (1020) providing a survival rate (viability) of 80% ([1]; human, 48 h): 39330 µM | Fold change ADRA2A (NM_000681) [2, 3]: 0.179 | Fold change ATRNL1 (NR_074088) [2, 3]: 4.158 | Fold change C12orf79 (NR_046159) [2, 3]: 0.213 | Fold change C14orf80 (NR_046159) [2, 3]: 0.354 | Fold change CALML3 (NM_001286399) [2, 3]: 0.354 | Fold change CCDC184 (NM_001013635) [2, 3]: 4.501 | Fold change CD37 (NM_001040031) [2, 3]: 2.028 | Fold change CDHR1 (NM_001171971) [2, 3]: 0.216 | Fold change CHL1 (NM_001253387) [2, 3]: 0.335 | Fold change COL4A3 (NM_000091) [2, 3]: 2.229 | Fold change CRLF2 (NM_022148) [2, 3]: 0.355 | Fold change CSF3R (NM_172313) [2, 3]: 0.354 | Fold change DNMBP-AS1 (NR_024130) [2, 3]: 2.406 | Fold change EGR1 (NM_001964) [2, 3]: 0.419 | Fold change GNA14 (NM_004297) [2, 3]: 8.261 | Fold change LOC728752 (NR_036504) [2, 3]: 7.322 | Fold change PAX8 (NM_003466) [2, 3]: 2.723 | Fold change PRRT3-AS1 (NR_046734) [2, 3]: 2.817 | Fold change RBP3 (NM_002900) [2, 3]: 0.354 | Fold change SEPT14 (NM_207366) [2, 3]: 0.214 | Fold change SERPINA12 (NM_001304461) [2, 3]: 0.354 | Fold change SLC13A4 (NM_012450) [2, 3]: 8.995 | Fold change SPOCK2 (NM_001244950) [2, 3]: 4.031 | Fold change TSPAN1 (NM_005727) [2, 3]: 4.281 | Fold change USP12-AB1 (NR_046647) [2, 3]: 7.329 | Fold change VIPR†-AS1 (NR_046654) [2, 3]: 0.354 | Fold change XIRP1 (NM_001198621) [2, 3]: 0.354 | Fold change ZFP69B (NM_023070) [2, 3]: 2.472 | Fold change ZNF432 (NM_014650) [2, 3]: 4.086 | Fold change ZNF487 (NR_026693) [2, 3]: 0.354 | Fold change ADRA2A (NM_000681) [2, 4]: 0.184 | Fold change ATRNL1 (NR_074088) [2, 4]: 2.665 | Fold change C12orf79 (NR_046159) [2, 4]: 0.216 | Fold change C14orf80 (NR_046159) [2, 4]: 0.356 | Fold change CALML3 (NM_001286399) [2, 4]: 0.356 | Fold change CCDC184 (NM_001013635) [2, 4]: 2.387 | Fold change CD37 (NM_001040031) [2, 4]: 3.272 | Fold change CDHR1 (NM_001171971) [2, 4]: 0.223 | Fold change CHL1 (NM_001253387) [2, 4]: 0.273 | Fold change COL4A3 (NM_000091) [2, 4]: 5.033 | Fold change CRLF2 (NM_022148) [2, 4]: 0.359 | Fold change CSF3R (NM_172313) [2, 4]: 0.356 | Fold change DNMBP-AS1 (NR_024130) [2, 4]: 8.289 | Fold change EGR1 (NM_001964) [2, 4]: 0.332 | Fold change GNA14 (NM_004297) [2, 4]: 6.776 | Fold change LOC728752 (NR_036504) [2, 4]: 5.683 | Fold change PAX8 (NM_003466) [2, 4]: 2.277 | Fold change PRRT3-AS1 (NR_046734) [2, 4]: 3.902 | Fold change RBP3 (NM_002900) [2, 4]: 0.356 | Fold change SEPT14 (NM_207366) [2, 4]: 0.218 | Fold change SERPINA12 (NM_001304461) [2, 4]: 0.356 | Fold change SLC13A4 (NM_012450) [2, 4]: 2.153 | Fold change SPOCK2 (NM_001244950) [2, 4]: 2.181 | Fold change TSPAN1 (NM_005727) [2, 4]: 3.938 | Fold change USP12-AB1 (NR_046647) [2, 4]: 2.362 | Fold change VIPR†-AS1 (NR_046654) [2, 4]: 0.356 | Fold change XIRP1 (NM_001198621) [2, 4]: 0.356 | Fold change ZFP69B (NM_023070) [2, 4]: 2.299 | Fold change ZNF432 (NM_014650) [2, 4]: 5.290 | Fold change ZNF487 (NR_026693) [2, 4]: 0.356

CC(C)=O [Acetone, acetone]
concentration (105) providing a survival rate (viability) of 95% ([1]; BEAS-2B, 48 hours, MTT): 5380 µM | concentration (1020) providing a survival rate (viability) of 80% ([1]; BEAS-2B, 48 hours, MTT): 71900 µM | Fold change ADRA2A (NM_000681) [2, 3]: 0.179 | Fold change ATRNL1 (NR_074088) [2, 3]: 3.000 | Fold change C12orf79 (NR_046159) [2, 3]: 0.213 | Fold change C14orf80 (NR_046159) [2, 3]: 0.354 | Fold change CALML3 (NM_001286399) [2, 3]: 0.354 | Fold change CCDC184 (NM_001013635) [2, 3]: 12.166 | Fold change CD37 (NM_001040031) [2, 3]: 2.781 | Fold change CDHR1 (NM_001171971) [2, 3]: 0.409 | Fold change CHL1 (NM_001253387) [2, 3]: 0.224 | Fold change COL4A3 (NM_000091) [2, 3]: 4.046 | Fold change CRLF2 (NM_022148) [2, 3]: 0.355 | Fold change CSF3R (NM_172313) [2, 3]: 0.354 | Fold change DNMBP-AS1 (NR_024130) [2, 3]: 2.455 | Fold change EGR1 (NM_001964) [2, 3]: 0.422 | Fold change GNA14 (NM_004297) [2, 3]: 5.492 | Fold change LOC728752 (NR_036504) [2, 3]: 4.554 | Fold change PAX8 (NM_003466) [2, 3]: 2.753 | Fold change PRRT3-AS1 (NR_046734) [2, 3]: 2.261 | Fold change RBP3 (NM_002900) [2, 3]: 0.354 | Fold change SEPT14 (NM_207366) [2, 3]: 0.214 | Fold change SERPINA12 (NM_001304461) [2, 3]: 0.354 | Fold change SLC13A4 (NM_012450) [2, 3]: 10.528 | Fold change SPOCK2 (NM_001244950) [2, 3]: 5.291 | Fold change TSPAN1 (NM_005727) [2, 3]: 5.935 | Fold change USP12-AB1 (NR_046647) [2, 3]: 3.620 | Fold change VIPR†-AS1 (NR_046654) [2, 3]: 0.354 | Fold change XIRP1 (NM_001198621) [2, 3]: 0.354 | Fold change ZFP69B (NM_023070) [2, 3]: 2.708 | Fold change ZNF432 (NM_014650) [2, 3]: 4.647 | Fold change ZNF487 (NR_026693) [2, 3]: 0.354 | Fold change ADRA2A (NM_000681) [2, 4]: 0.355 | Fold change ATRNL1 (NR_074088) [2, 4]: 2.751 | Fold change C12orf79 (NR_046159) [2, 4]: 0.213 | Fold change C14orf80 (NR_046159) [2, 4]: 0.354 | Fold change CALML3 (NM_001286399) [2, 4]: 0.354 | Fold change CCDC184 (NM_001013635) [2, 4]: 4.927 | Fold change CD37 (NM_001040031) [2, 4]: 2.526 | Fold change CDHR1 (NM_001171971) [2, 4]: 0.429 | Fold change CHL1 (NM_001253387) [2, 4]: 0.360 | Fold change COL4A3 (NM_000091) [2, 4]: 2.490 | Fold change CRLF2 (NM_022148) [2, 4]: 0.357 | Fold change CSF3R (NM_172313) [2, 4]: 0.358 | Fold change DNMBP-AS1 (NR_024130) [2, 4]: 5.285 | Fold change EGR1 (NM_001964) [2, 4]: 0.437 | Fold change GNA14 (NM_004297) [2, 4]: 2.289 | Fold change LOC728752 (NR_036504) [2, 4]: 4.939 | Fold change PAX8 (NM_003466) [2, 4]: 5.800 | Fold change PRRT3-AS1 (NR_046734) [2, 4]: 2.061 | Fold change RBP3 (NM_002900) [2, 4]: 0.376 | Fold change SEPT14 (NM_207366) [2, 4]: 0.214 | Fold change SERPINA12 (NM_001304461) [2, 4]: 0.354 | Fold change SLC13A4 (NM_012450) [2, 4]: 12.386 | Fold change SPOCK2 (NM_001244950) [2, 4]: 5.054 | Fold change TSPAN1 (NM_005727) [2, 4]: 2.949 | Fold change USP12-AB1 (NR_046647) [2, 4]: 6.910 | Fold change VIPR†-AS1 (NR_046654) [2, 4]: 0.354 | Fold change XIRP1 (NM_001198621) [2, 4]: 0.354 | Fold change ZFP69B (NM_023070) [2, 4]: 4.454 | Fold change ZNF432 (NM_014650) [2, 4]: 5.319 | Fold change ZNF487 (NR_026693) [2, 4]: 0.354

From US20210115509A1, “BIOMARKER FOR IDENTIFYING SPECIFIC EXPOSURE TO KETONES AND METHOD OF IDENTIFICATION USING THE SAME” (KOREA INSTITUTE OF SCIENCE AND TECHNOLOGY, priority 2019, published 2021)
